Drawing on ChEMBL document CHEMBL4422664, “2-Benzoylbenzofuran derivatives possessing piperazine linker as anticancer agents” (Bioorg Med Chem Lett, 2019), this text covers IC50 for 24 compounds.

Each structure is given as a SMILES string.

For one assay, the system named is A549. As to the kind of experiment: Cytotoxicity against human A549 assessed as reduction in cell viability after 48 hrs by MTT assay. In kind it is functional, cell-based. The following applies: A549, 48 h. In general terms: Tetrazolium assays rely on reduction of a dye to a coloured formazan, in cell work by metabolically active cells.
The subject of another assay is MCF7. Description: Cytotoxicity against human MCF7 assessed as reduction in cell viability after 48 hrs by MTT assay. In kind it is functional, cell-based. The following applies: MCF7, 48 h.
The subject of the next assay is HCT-116. Description: Cytotoxicity against human HCT116 assessed as reduction in cell viability after 48 hrs by MTT assay. It counts as functional, cell-based. The settings on record: HCT-116, 48 h.
A further assay has as its system SGC-7901. As to the kind of experiment: Cytotoxicity against human SGC7901 assessed as reduction in cell viability after 48 hrs by MTT assay. It counts as functional, cell-based. The settings on record: SGC-7901, 48 h.
The test system of another assay is HeLa. As to the kind of experiment: Cytotoxicity against human HeLa assessed as reduction in cell viability after 48 hrs by MTT assay. In kind it is functional, cell-based.
Another assay concerns L02. Description: Cytotoxicity against human L02 assessed as reduction in cell viability after 48 hrs by MTT assay. In kind it is cell-based. The following applies: L02, 48 h.

One may read the IC50 as the concentration at which inhibition is half-maximal. Turning to `CCN(CC)c1ccc2cc(C(=O)c3ccc(N4CCN(C(=O)CN5CCN(C(=O)CCl)CC5)CC4)cc3)oc2c1`, the IC50 with A549 was 3.06 µM; in the assay with MCF7 it was over 40 µM; in the assay with HCT-116 it was over 40 µM; in the assay on SGC-7901, 1.63 µM; in the assay on HeLa, 5.52 µM; in the assay with L02, 20.9 µM.

On to `CCN(CC)c1ccc2cc(C(=O)c3ccc(N4CCN(C(=O)CN5CCN(S(=O)(=O)c6ccc(F)cc6)CC5)CC4)cc3)oc2c1`, for which the IC50 in the assay with A549 is 33.2 µM; in the assay on MCF7, 20.5 µM; in the assay on HCT-116, over 40 µM; in the assay on SGC-7901 it was over 40 µM; in the assay with HeLa it was 16.7 µM; in the assay on L02, 9.24 µM.

Consider `CCN(CC)c1ccc2cc(C(=O)c3ccc(N4CCN(C(=O)CN5CCN(C(=O)c6ccc(C(F)(F)F)cc6)CC5)CC4)cc3)oc2c1`, for which the IC50 in the assay with A549 was over 40 µM; with MCF7, over 40 µM; with HCT-116, over 40 µM; in the assay on SGC-7901 it was over 40 µM; with HeLa it was over 40 µM; in the assay on L02, 14.3 µM.

In the case of `CCN(CC)c1ccc2cc(C(=O)c3ccc(N4CCN(C(=O)CN5CCN(C(=O)c6ccc(F)cc6)CC5)CC4)cc3)oc2c1`, the IC50 with A549 is over 40 µM; in the assay with MCF7, over 40 µM; in the assay with HCT-116, over 40 µM; with SGC-7901, over 40 µM; with HeLa, over 40 µM; in the assay with L02 it was over 100 µM.

In the case of `CCOC(=O)CN1CCN(CC(=O)N2CCN(c3ccc(C(=O)c4cc5ccc(N(CC)CC)cc5o4)cc3)CC2)CC1`, the IC50 in the assay with A549 is over 40 µM; in the assay on MCF7 it was over 40 µM; with HCT-116, over 40 µM; in the assay with SGC-7901, over 40 µM; in the assay on HeLa, 22.1 µM; with L02, 68.7 µM.

With `CCN(CC)c1ccc2cc(C(=O)c3ccc(N4CCN(C(=O)CN5CCN(CC(C)=O)CC5)CC4)cc3)oc2c1`, the IC50 is 8.92 µM with A549; 11 µM with MCF7; 24 µM in the assay on HCT-116; 2.21 µM with SGC-7901; 2.76 µM in the assay on HeLa; over 100 µM with L02.

On to `CCN(CC)c1ccc2cc(C(=O)c3ccc(N4CCN(C(=O)CN5CCN(Cc6ccc(C#N)cc6)CC5)CC4)cc3)oc2c1`, for which the half-inhibitory concentration (IC50) in the assay with A549 is 17.4 µM; with MCF7 it was over 40 µM; with HCT-116, over 40 µM; in the assay with SGC-7901, 26.2 µM; with HeLa, over 40 µM; in the assay with L02 it was 29.6 µM.

`C#CCN1CCN(CC(=O)N2CCN(c3ccc(C(=O)c4cc5ccc(N(CC)CC)cc5o4)cc3)CC2)CC1`: the IC50 with A549 is over 40 µM; in the assay with MCF7, over 40 µM; in the assay on HCT-116 it was 17.7 µM; with SGC-7901, 20.1 µM; in the assay on HeLa it was over 40 µM; in the assay with L02 it was over 100 µM.

Turning to `CCN(CC)c1ccc2cc(C(=O)c3ccc(N4CCN(C(=O)CN5CCN(CC(=O)c6ccccc6)CC5)CC4)cc3)oc2c1`, the IC50 with A549 was 12.6 µM; with MCF7, 34.5 µM; with HCT-116, 27.1 µM; in the assay on SGC-7901, 4.03 µM; with HeLa, 3.12 µM; in the assay on L02, 53.8 µM.

Take `CCN(CC)c1ccc2cc(C(=O)c3ccc(N4CCN(C(=O)CN5CCN(Cc6ccc(F)c(F)c6)CC5)CC4)cc3)oc2c1`: the half-inhibitory concentration (IC50) in the assay on A549 came to 5.44 µM; in the assay with MCF7, 9.22 µM; with HCT-116 it was 26.3 µM; with SGC-7901, 1.78 µM; in the assay on HeLa, 6.4 µM; in the assay on L02, 10.2 µM.

With `CCN(CC)c1ccc2cc(C(=O)c3ccc(N4CCN(C(=O)CN5CCN(CC(=O)c6ccc7ccccc7c6)CC5)CC4)cc3)oc2c1`, the half-maximal inhibitory concentration (IC50) in the assay with A549 is 26.3 µM; in the assay with MCF7, over 40 µM; with HCT-116 it was over 40 µM; with SGC-7901, over 40 µM; in the assay with HeLa it was 17.1 µM; in the assay with L02 it was over 100 µM.

As for `CCN(CC)c1ccc2cc(C(=O)c3ccc(N4CCN(C(=O)CN5CCN(S(=O)(=O)c6ccc(C#N)cc6)CC5)CC4)cc3)oc2c1`, the IC50 in the assay on A549 is over 40 µM; with MCF7, over 40 µM; in the assay with HCT-116, 36.4 µM; in the assay with SGC-7901, over 40 µM; in the assay with HeLa, 8.47 µM; in the assay with L02, 44.1 µM.

Regarding `CCN(CC)c1ccc2cc(C(=O)c3ccc(N4CCN(C(=O)CN5CCN(S(=O)(=O)c6ccc(OC(F)(F)F)cc6)CC5)CC4)cc3)oc2c1`, the IC50 was over 40 µM in the assay on A549; 20.1 µM in the assay with MCF7; 7.68 µM in the assay on HCT-116; 24.4 µM in the assay on SGC-7901; 30.2 µM in the assay with HeLa; 34.7 µM in the assay on L02.

For `CCN(CC)c1ccc2cc(C(=O)c3ccc(N4CCN(C(=O)CN5CCN(S(=O)(=O)c6ccc(C(F)(F)F)cc6)CC5)CC4)cc3)oc2c1`, the IC50 in the assay with A549 is over 40 µM; with MCF7 it was 17.5 µM; in the assay with HCT-116, 32.2 µM; in the assay with SGC-7901, over 40 µM; in the assay with HeLa, over 40 µM; in the assay with L02, 17 µM.

`CCN(CC)c1ccc2cc(C(=O)c3ccc(N4CCN(C(=O)CN5CCN(C(=O)/C=C/c6ccccc6)CC5)CC4)cc3)oc2c1`: the half-inhibitory concentration (IC50) with A549 was 9.45 µM; in the assay on MCF7 it was 13.4 µM; in the assay with HCT-116, 6.81 µM; with SGC-7901, 1.14 µM; in the assay with HeLa, 5.26 µM; with L02, over 100 µM.

For the compound `O=c1[nH]cc(F)c(=O)[nH]1` [FLUOROURACIL], the IC50 in the assay with A549 stood at 10.6 µM; with MCF7 it was 26.3 µM; with HCT-116 it was 15.5 µM; with SGC-7901, 12 µM; in the assay on HeLa it was 10.7 µM.

`CCN(CC)c1ccc2cc(C(=O)c3ccc(N4CCN(C(=O)CN5CCN(Cc6ccc(C(F)(F)F)cc6)CC5)CC4)cc3)oc2c1`: the IC50 in the assay on A549 was 20.1 µM; with MCF7, 18.2 µM; in the assay on HCT-116, over 40 µM; with SGC-7901 it was 32 µM; with HeLa, over 40 µM; with L02 it was 6.54 µM.

Regarding `CCN(CC)c1ccc2cc(C(=O)c3ccc(N4CCN(C(=O)CN5CCN(S(=O)(=O)C6CC6)CC5)CC4)cc3)oc2c1`, the IC50 with A549 is 17.3 µM; with MCF7, over 40 µM; with HCT-116 it was over 40 µM; with SGC-7901 it was 15.3 µM; in the assay with HeLa, 28.1 µM; in the assay with L02, over 100 µM.

As to `CCN(CC)c1ccc2cc(C(=O)c3ccc(N4CCN(C(=O)CN5CCN(CC(=O)c6ccc(OC)cc6)CC5)CC4)cc3)oc2c1`, the half-inhibitory concentration (IC50) in the assay on A549 is 4.84 µM; with MCF7, 16.7 µM; with HCT-116, 17.9 µM; in the assay on SGC-7901, 8.91 µM; with HeLa, 15.3 µM; in the assay on L02, over 100 µM.

Take `CCN(CC)c1ccc2cc(C(=O)c3ccc(N4CCN(C(=O)CN5CCN(C(=O)c6cc(Cl)cc(Cl)c6)CC5)CC4)cc3)oc2c1`: the IC50 in the assay with A549 is 6.74 µM; in the assay on MCF7 it was 16.1 µM; in the assay on HCT-116 it was 28 µM; with SGC-7901 it was 2.72 µM; in the assay with HeLa it was 8.11 µM; with L02, over 100 µM.

Consider `CCN(CC)c1ccc2cc(C(=O)c3ccc(N4CCN(C(=O)CN5CCN(CC(=O)c6ccc(C)cc6)CC5)CC4)cc3)oc2c1`, for which the IC50 in the assay on A549 was 0.87 µM; in the assay on MCF7, over 40 µM; with HCT-116, 13.4 µM; in the assay with SGC-7901, over 40 µM; in the assay on HeLa, 1.68 µM; with L02 it was 36.5 µM.

Consider `CCN(CC)c1ccc2cc(C(=O)c3ccc(N4CCN(C(=O)CN5CCN(CC(=O)c6ccc(C#N)cc6)CC5)CC4)cc3)oc2c1`, for which the IC50 is 4.57 µM with A549; 11.9 µM in the assay with MCF7; over 40 µM with HCT-116; over 40 µM in the assay with SGC-7901; 2.44 µM in the assay on HeLa; over 100 µM in the assay on L02.

Consider `CCN(CC)c1ccc2cc(C(=O)c3ccc(N4CCN(C(=O)CN5CCNCC5)CC4)cc3)oc2c1`, for which the concentration for half-maximal inhibition (IC50) in the assay with A549 was 0.32 µM; in the assay with MCF7 it was 5.34 µM; in the assay on HCT-116, 1.87 µM; in the assay on SGC-7901 it was 1.22 µM; in the assay with HeLa, 1.35 µM; in the assay with L02, over 100 µM.

With `CCN(CC)c1ccc2cc(C(=O)c3ccc(N4CCN(C(=O)CN5CCN(CC(=O)c6ccc(F)cc6)CC5)CC4)cc3)oc2c1`, the half-inhibitory concentration (IC50) with A549 turned out to be 0.57 µM; with MCF7, 16.7 µM; in the assay on HCT-116, 14.2 µM; in the assay on SGC-7901, 3.44 µM; in the assay on HeLa it was 9.64 µM; with L02 it was 68.4 µM.
